Among the data in publication PMC6838069, “Biochemical characterization and chemical validation of Leishmania MAP Kinase-3 as a potential drug target” (Scientific Reports, 2019) are Ki values, retold here.

In the assay the target is T1, LdMAPK3 (Leishmania donovani, UniProt A0A3S7WR45).
T1 construct: gene LdCL_100012100; pET-28a BamHI/HindIII, His6-tagged (~48 kDa on gel, tag not reported cut), E. coli BL21(DE3), Ni-NTA
T1 sequence (A0A3S7WR45 1-388): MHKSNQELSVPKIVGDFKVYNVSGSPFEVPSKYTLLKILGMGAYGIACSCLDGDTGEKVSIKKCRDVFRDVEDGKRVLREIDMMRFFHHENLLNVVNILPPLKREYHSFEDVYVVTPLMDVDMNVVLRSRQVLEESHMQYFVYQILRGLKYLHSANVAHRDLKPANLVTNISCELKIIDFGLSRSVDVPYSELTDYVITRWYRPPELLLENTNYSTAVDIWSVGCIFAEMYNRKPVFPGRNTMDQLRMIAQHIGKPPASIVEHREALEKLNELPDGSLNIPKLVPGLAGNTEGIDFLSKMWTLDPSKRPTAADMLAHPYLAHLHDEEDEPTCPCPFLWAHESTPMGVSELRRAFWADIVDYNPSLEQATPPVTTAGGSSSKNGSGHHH
In words: Kinase-Glo Plus luminescent ATP depletion; Dixon plot. Format: biochemical.

Turning to `O=c1c(-c2ccc(O)cc2)coc2cc(O)cc(O)c12` [GEN, genistein], the Ki worked out at 3.76 ± 0.28 µM.
In the case of `O=c1cc(-c2ccccc2)oc2cc(O)cc(O)c12` [CHY, 5,7-dihydroxyflavone] it was 8.75 ± 0.11 µM.
